# Assay results as given in patent US10774047B2 (THE TRUSTEES OF THE UNIVERSITY OF PENNSYLVANIA, priority 2015, dated 2020).
# “Also recorded” adds a separate entry of the source.
# Legend:
# A375P (melanoma) cells = assay: MTT anti-proliferative assay (72 hr) in A375P cells; type: cell-based; settings: for anti-proliferative potency / activity (comparative): A375P and PANC1 cells, FIGS. 1C and 1D
# Procedure: (§1) (A) Schematic of dimeric antimalarials (B) A375P cells were plated in a 384-well highthroughput format and treated with the quinacrine-, mefloquine- and primaquine-based compounds shown (72 hr, 1 nM-30 μM). Viability was standardized to vehicle (water) treated controls and shown are Log IC50 values calculated using GraphPad Prism. Alamar blue. (C) A375P cells were treated with the DQ compound library (72 hr, 1 nM-30 μM) MTT. (D) PANC1 cells were treated identically to (C). (E) PANC1 cells were treated with the DQ compound library as well as Lys05, Spautin and SBI-0206965 (72 hr, 3 μM). Apoptosis was assessed by Annexin-V/flow cytometry.
# For MTT assays, cells were plated in 96-well plates (2,000 cells/well), allowed to adhere overnight, and subsequently treated in triplicate for 72 hours. MTT reagent (Roche) was applied, cells were solubilized and absorbance was read at 570 nm, with background subtraction at 690 nm. The clonogenic assay was performed as previously described. Briefly, cells were suspended in appropriate culture media, and plated in 6-well plates (2×10^3 cells/well). Medium was changed and drug treatment refreshed every 3-4 days for 2 weeks. Cells were subsequently stained with crystal violet and quantified.
# In an attempt to improve in vivo activity, we designed a series of second-generation analogs of Lys05 to test the effect of changing each of the separate parts of the Lys05 structure on lysosomal inhibition and cytotoxicity. Replacement of the linker of Lys05 with the commercially available linker spermidine and exchanging the aromatic rings of Lys05 from CQ to the antimalarial-based heterocyclic systems primaquine (PQ), mefloquine (MQ) and quinacrine (QC) was interrogated (FIG. 1A). The dimeric antimalarial compounds were named DC (dimeric chloroquine), DM (dimeric mefloquine), DP (dimeric primaquine) and DQ (dimeric quinacrine). The dimeric compounds were named followed by three digits (m, n, r) where m signifies the number of carbons to the left of the central nitrogen, the n signifies the number of carbons on the right of the central nitrogen and the r signifies if the central nitrogen is methylated (1) or not (0). […] We generated a focused library of DQs with triamine linkers of increasing length ranging from lengths of two to eleven carbons between the QC heterocycle and the central nitrogen of the triamine linker. Both secondary and tertiary amine derivatives of each analog were generated to determine the role of central nitrogen alkylation on biological activity. A375P and PANC1 (pancreatic cancer) cells were treated with CQ, Lys05, QC and the DQ library, establishing the increase in anti-proliferative potency of DQs relative to monomeric QC. […] We observed a clear relationship between linker length and potency amongst the DQs. […] When tested in parallel to the DQs. […] PANC1 cells were treated with the panel of DQs (3 uM) as well as Spautin-1 (3 μM) and SBI-0206965 (3 μM) for 24 hours.
# A375P cells [1] = assay: Galectin-3 punctae assay (lysosomal membrane permeabilization); type: cell-based; settings: 6 hours (LLOMe 3 hr, 2 mM)
# Procedure: (§2) FIG. 3: Central nitrogen methylation status dictates DNA damage versus lysosomal membrane permeability. […] Cells were imaged with fluorescent microscopy, phospho-H2AX+ cells were scored using ImageJ software analysis and quantified to the right. (B) A375P cells were treated identical to the conditions in (A), with the addition of the positive control LLoMe (3 hr, 2 mM). Cells were subsequently stained with galectin-3 and imaged with fluorescent microscopy. The formation of galectin-3 punctae, which signify lysosomal membrane permeabilization, are pointed out with yellow arrows.
# When lysosomes are healthy, galectin-3 is uniformly dispersed throughout the cell. However, when the lysosome is damaged, galectin-3 rapidly localizes to the site of damaged lysosomes, appearing as punctae and marking individual leaky lysosomes.
# 451Lu (melanoma) cells = assay: Bafilomycin clamp experiment (autophagic flux); type: cell-based; settings: 3 μM, with or without bafilomycin-A1, 24 hours
# A375P cells [2] = assay: phospho-H2AX immunofluorescence (DNA damage); type: cell-based; settings: 6 hr, 3 μM
# Procedure: as §2
# The longer linked DQs can be separated into two classes based on central nitrogen substitution (secondary or tertiary amine)—those that localize to the nucleus and those that localize to the lysosome. We next sought to determine whether both classes of DQs cause DNA damage since quinacrine is known to intercalate DNA. […] Furthermore, the difference in DNA damage induced by unmethylated DQs versus the corresponding methylated DQs for each pair of compounds increase with increasing linker length.
# [3] = test system: 1205Lu melanoma xenografts; assay: 1205Lu melanoma xenograft model; type: in vivo, NSG mice; settings: 8 mg/kg i.p., 2 days on / 2 days off
# Procedure: FIG. 5: DQ661 has significant single-agent in vivo activity in melanoma xenograft model. […]. Mice were randomly split into 4 arms and treated with vehicle control (water, i.p.), quinacrine (8 mg/kg, i.p.), DQ660 (8 mg/kg, i.p.) or DQ661 (8 mg/kg, i.p.). Treatments were given as shown by the black arrows, following a regimen of 2 days on treatment followed by 2 days off treatment. (C) Representative electron micrographs from melanoma xenograft tumors harvested after 2 days of treatment according to (B). (D) Average tumor volumes for each treatment arm are shown. Each point represents the mean of N=8 mice per treatment arm and the error bars represent standard error (s.e.) (C) Representative EM for tumors treated in each arm. (E) A schematic for how mice were treated in (F). […]. Mice were randomly split into 3 arms and treated with water (i.p.), DQ661 (2 mg/kg, i.p.) or DQ661 (4 mg/kg, i.p.). Treatments were give as shown by the black arrows, following a regimen of 2 days on treatment followed by 2 days […]. Tumor volume is shown. Each point represents the mean of N=8 mice per treatment arm and the error bars represent s.e. (G) Average tumor growth rate for each treatment arm are shown. (H) Protein lysate was harvested from mouse tumors at the end of the experiment and immunoblotted for LC3B, phospho-4E-BP1 T37_T65, phospho-4E-BP1 S240_S244 and Actin. Quantification of proteins standardized to control mice levels are shown to the right.
# Five to seven-week old NOD-scid gamma (NSG) mice (Jackson Laboratory) were used for xenograft studies with the 1205Lu melanoma cell line. Tumor generation, tumor measurement and tumor harvesting performed as previously described (ref). For the pancreatic cancer model, five to seven-week old C57BL/6 mice (Jackson Laboratory) and maintained under pathogen-free conditions. 2×10^6 G43 cells were subcutaneously injected with an equal volume of matrigel (BD) over the right flank […] and tumors became palpable after 5-6 days. Mice were enrolled on day 6 and given Gemcitabine (120 mg/kg, i.p.). DQ661 (4 mg/kg, i.p.) was given on days 7, 8, 12, 13, 17 and 18. Perpendicular tumor diameters were measured sing electronic calipers and volume was calculated leveraging the formula L×W^2×0.5, where L is the longest dimension and W is the perpendicular dimension. All animal experiments were performed in accordance to the protocols approved by the Institute of Animal Care and Use Committee of the University of Pennsylvania.
# . After 1-2 weeks, tumors were palpable and mice were treated with vehicle control (water), quinacrine (8 mg/kg), DQ660 (8 mg/kg) or DQ661 (8 mg/kg) i.p (FIG. 5A). […]. Therefore another 1205Lu xenograft experiment was performed with mice treated with either vehicle control (water, n=6) or DQ661 (2 or 4 mg/kg, n=6) for a period of 14 days (FIG. 5e, 5F).
# mTORC1 = assay: Immunoblot of mTORC1 signaling and LC3B, panel of lysosomal inhibitors; settings: A375P cells; for 4E-BP1 phosphorylation: PES 10 μM, PET 10 μM, Bafilomycin A1 100 nM; for mTORC1 activity (Western blotting): DQ661 3 μM, Pepstatin A 10 μG/mL, Siramesine 8 μM
# PANC1 cells = assay: Annexin V binding flow cytometry apoptosis assay; type: cell-based; settings: 3 μM, 24 hours
# Procedure: as §1
# In an attempt to improve in vivo activity, we designed a series of second-generation analogs of Lys05 to test the effect of changing each of the separate parts of the Lys05 structure on lysosomal inhibition and cytotoxicity. Replacement of the linker of Lys05 with the commercially available linker spermidine and exchanging the aromatic rings of Lys05 from CQ to the antimalarial-based heterocyclic systems primaquine (PQ), mefloquine (MQ) and quinacrine (QC) was interrogated (FIG. 1A). The dimeric antimalarial compounds were named DC (dimeric chloroquine), DM (dimeric mefloquine), DP (dimeric primaquine) and DQ (dimeric quinacrine). […]
molecule,measurement,setting,value
COc1ccc2nc3cc(Cl)ccc3c(NCCN(C)CCNc3c4ccc(Cl)cc4nc4ccc(OC)cc34)c2c1 [DQ 221],anti-proliferative potency / activity (comparative),A375P (melanoma) cells,same activity as monomeric QC; also recorded: potency was equal to monomeric quinacrine
same,galectin-3 staining pattern,A375P cells [1],diffuse staining for galectin-3
same,effect on autophagic flux (LC3II/LC3I ratio with vs without bafilomycin-A1),451Lu (melanoma) cells,autophagy inhibitors
COc1ccc2nc3cc(Cl)ccc3c(NCCCNCCCNc3c4ccc(Cl)cc4nc4ccc(OC)cc34)c2c1 [DQ 330],anti-proliferative potency / activity (comparative),A375P (melanoma) cells,significant increase in anti-proliferative potency
COc1ccc2nc3cc(Cl)ccc3c(NCCCCNCCCNc3c4ccc(Cl)cc4nc4ccc(OC)cc34)c2c1 [DQ 340],"IC50, anti-proliferative activity","A375P (melanoma) cells; A375P cells, FIG. 1B",low nanomolar
COc1ccc2nc3cc(Cl)ccc3c(NCCCCN(C)CCCNc3c4ccc(Cl)cc4nc4ccc(OC)cc34)c2c1 [DQ 341],effect on autophagic flux (LC3II/LC3I ratio with vs without bafilomycin-A1),451Lu (melanoma) cells,autophagy inhibitors
COc1ccc2nc3cc(Cl)ccc3c(NCCCCN(C)CCCCNc3c4ccc(Cl)cc4nc4ccc(OC)cc34)c2c1 [DQ 441],effect on autophagic flux (LC3II/LC3I ratio with vs without bafilomycin-A1),451Lu (melanoma) cells,autophagy inhibitors
COc1ccc2nc3cc(Cl)ccc3c(NCCCCCNCCCCCNc3c4ccc(Cl)cc4nc4ccc(OC)cc34)c2c1 [DQ 550],"DNA damage (phospho-H2AX, γ-H2AX)",A375P cells [2],significantly greater levels of DNA damage relative to their methylated counterparts
same,galectin-3 staining pattern,A375P cells [1],diffuse staining for galectin-3
COc1ccc2nc3cc(Cl)ccc3c(NCCCCCN(C)CCCCCNc3c4ccc(Cl)cc4nc4ccc(OC)cc34)c2c1 [DQ 551],galectin-3 staining pattern,A375P cells [1],punctate distribution of galectin-3
same,effect on autophagic flux (LC3II/LC3I ratio with vs without bafilomycin-A1),451Lu (melanoma) cells,autophagy inhibitors
COc1ccc2nc3cc(Cl)ccc3c(NCCCCCCNCCCCCCNc3c4ccc(Cl)cc4nc4ccc(OC)cc34)c2c1 [DQ 660],"DNA damage (phospho-H2AX, γ-H2AX)",A375P cells [2],significantly greater levels of DNA damage relative to their methylated counterparts
same,galectin-3 staining pattern,A375P cells [1],diffuse staining for galectin-3
same,tumor growth,[3],modest but significant growth impairment of tumors
"COC(=O)[C@H](CC(C)C)NC(=O)[C@@H](N)CC(C)C [LLOMe, L-leucyl-L-leucine methyl ester, reference compound]",galectin-3 staining pattern,A375P cells [1],punctate distribution of galectin-3
NS(=O)(=O)C#Cc1ccccc1 [PES],4E-BP1 phosphorylation,mTORC1,hyperphosphorylation of 4E-BP1
"CNC(=O)c1ccccc1Oc1nc(Nc2cc(OC)c(OC)c(OC)c2)ncc1Br [SBI-0206965, reference compound]",apoptosis (annexin V),PANC1 cells,did not induce significant levels of apoptosis
same,anti-proliferative potency / activity (comparative),A375P (melanoma) cells,did not have significantly increased anti-cancer activity relative to monomeric chloroquine or monomeric quinacrine
Fc1ccc(-n2cc(CCCCN3CCC4(CC3)OCc3ccccc34)c3ccccc32)cc1 [Siramesine],mTORC1 activity (Western blotting),mTORC1,did not inhibit mTORC1 activity
"Fc1ccc(CNc2ncnc3ccc(F)cc23)cc1 [Spautin-1, reference compound]",apoptosis (annexin V),PANC1 cells,did not induce significant levels of apoptosis
same,anti-proliferative potency / activity (comparative),A375P (melanoma) cells,did not have significantly increased anti-cancer activity relative to monomeric chloroquine or monomeric quinacrine
"CCN(CC)CCCC(C)Nc1c2ccc(Cl)cc2nc2ccc(OC)cc12 (centres unmarked) [quinacrine, reference compound]",galectin-3 staining pattern,A375P cells [1],diffuse staining for galectin-3
same,effect on autophagic flux (LC3II/LC3I ratio with vs without bafilomycin-A1),451Lu (melanoma) cells,induces autophagic flux
same,tumor growth,[3],no significant effect on tumor growth compared to vehicle control
Bafilomycin,4E-BP1 phosphorylation,mTORC1,hyperphosphorylation of 4E-BP1
Pepstatin A,mTORC1 activity (Western blotting),mTORC1,did not significantly affect mTORC1 activity
